Some test systems named below: A549 NSCLC; HCC-2998 colon; K-562 leukemia; LOX IMVI melanoma; NCI/ADR-RES ovarian; OVCAR-4 ovarian; SK-MEL-2 melanoma; SNB-19 CNS; SR leukemia; TK-10 renal.
Common to all, as to assay: DTP human tumour cell line panel, 48 h

Where “and” joins values, the source holds several entries; their conditions need not be identical. Equal entries are not always repeated.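 Compound exposure: 48 hours, 5 concentrations, 96-well plates. GI50 = concentration required for 50% inhibition of growth. TGI is the concentration that stops growth completely.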 Bounds are passed on as bounds.

Consider `c1ccc(-c2nn(-c3ccccc3)[n+](-c3ccccc3-c3ccccc3)n2)cc1`, for which the GI50 was 1.07 µM in the assay with A549 NSCLC; 0.94 µM with HCC-2998 colon; 0.456 µM with K-562 leukemia; 1.02 µM in the assay with LOX IMVI melanoma; greater than 78.7 µM in the assay on NCI/ADR-RES ovarian; 0.382 µM with OVCAR-4 ovarian. The GI50 with SK-MEL-2 melanoma was 1.8 µM; in the assay with SNB-19 CNS, 1.24 µM; in the assay with SR leukemia, 1.22 µM; in the assay with TK-10 renal, 4.35 µM. For the same compound, the TGI with A549 NSCLC is greater than 100 µM; in the assay on HCC-2998 colon, 17.3 µM; in the assay with K-562 leukemia, 15.3 µM; with LOX IMVI melanoma, 18.8 µM; in the assay with NCI/ADR-RES ovarian it was greater than 100 µM; with OVCAR-4 ovarian, 24.5 µM. Moreover, the TGI was 7.69 µM with SK-MEL-2 melanoma, greater than 80.7 µM with SNB-19 CNS, 10.9 µM with SR leukemia and 21.5 µM in the assay with TK-10 renal.
Consider `Clc1cc(-c2csc(Cl)c2)cs1`, for which the TGI in the assay on A549 NSCLC, in the assay with LOX IMVI melanoma, with NCI/ADR-RES ovarian, in the assay on OVCAR-4 ovarian, in the assay with SK-MEL-2 melanoma and in the assay on SNB-19 CNS was greater than 100 µM each time. The TGI in the assay on SR leukemia and in the assay on TK-10 renal was greater than 100 µM each time.
`Clc1ccc2c(NCCNc3nc(Cl)nc4ccccc34)ccnc2c1`: the GI50 is 1.4 µM with A549 NSCLC; 1.62 µM in the assay with HCC-2998 colon; 0.255 µM with K-562 leukemia; 2.5 µM in the assay with NCI/ADR-RES ovarian; 0.323 µM in the assay on OVCAR-4 ovarian; 1.87 µM in the assay on SK-MEL-2 melanoma. Further, the figures for the GI50 in the assay with SR leukemia and in the assay with TK-10 renal were 0.268 µM and 1.95 µM, respectively. Moreover, the TGI in the assay on A549 NSCLC came out at 3.04 µM; in the assay on HCC-2998 colon it was 3.18 µM; in the assay on K-562 leukemia, 0.614 µM; in the assay on NCI/ADR-RES ovarian, 7.24 µM; in the assay with OVCAR-4 ovarian it was 1.22 µM; in the assay on SK-MEL-2 melanoma it was 3.52 µM. Moreover, the TGI in the assay with SR leukemia was found to be 0.866 µM; with TK-10 renal, 3.46 µM.
Turning to `COc1cc2cc(C(=O)N3C[C@H](CCl)c4c3cc(O)c3ccccc43)[nH]c2c(OC)c1OC`, the GI50 in the assay with HCC-2998 colon was 0.0286 µM; in the assay with K-562 leukemia, 0.046 µM; with LOX IMVI melanoma, 0.0201 µM; in the assay on NCI/ADR-RES ovarian it was 1.34 µM; in the assay with OVCAR-4 ovarian, 0.0612 µM; with SNB-19 CNS, 0.0391 µM. For the same compound, the GI50 with TK-10 renal was 0.0571 µM. The TGI in the assay on HCC-2998 colon is 0.654 µM and 1.13 µM; in the assay with LOX IMVI melanoma it was 1.83 µM and 12.3 µM; with NCI/ADR-RES ovarian, 0.563 µM and 4.62 µM; in the assay with OVCAR-4 ovarian it was 2.76 µM and 14.6 µM; in the assay on SK-MEL-2 melanoma, 0.461 µM; with SNB-19 CNS, 1.42 µM and 1.67 µM. In addition, the TGI was 0.0672 µM in the assay on SR leukemia and greater than 100 µM in the assay with TK-10 renal.
Regarding `S=C1NC2=C(CCOc3c2ccc2ccccc32)C(c2ccc(Cl)cc2)N1` (stereo not given), the GI50 in the assay with A549 NSCLC is 45.1 µM; in the assay on K-562 leukemia it was 42.9 µM; in the assay on LOX IMVI melanoma, 40.2 µM; in the assay on NCI/ADR-RES ovarian, 31.9 µM; in the assay on OVCAR-4 ovarian, greater than 100 µM; in the assay with SK-MEL-2 melanoma, 80.9 µM. Besides, the GI50 in the assay with SNB-19 CNS was 56.4 µM; in the assay on SR leukemia it was 30.6 µM; in the assay on TK-10 renal, 35.4 µM. Besides, the TGI with A549 NSCLC, in the assay with K-562 leukemia, in the assay on LOX IMVI melanoma, in the assay on NCI/ADR-RES ovarian, in the assay on OVCAR-4 ovarian and in the assay on SK-MEL-2 melanoma was greater than 100 µM each time. The TGI in the assay on SNB-19 CNS, in the assay on SR leukemia and with TK-10 renal was greater than 100 µM each time.
As for `NS(=O)(=O)c1ccc(N=Nc2cc3ccccc3c(C(=O)O)c2O)cc1`, the TGI was greater than 100 µM with A549 NSCLC; greater than 100 µM in the assay with K-562 leukemia; greater than 100 µM in the assay on LOX IMVI melanoma; greater than 100 µM with NCI/ADR-RES ovarian; greater than 80.9 µM with OVCAR-4 ovarian; greater than 67.1 µM in the assay on SK-MEL-2 melanoma. The TGI is greater than 100 µM with SNB-19 CNS, greater than 84.6 µM in the assay on SR leukemia and greater than 80.6 µM with TK-10 renal.
Regarding `O=C(CN1CCN(c2cc3c(cc2F)c(=O)c(C(=O)O)cn3C2CC2)CC1)Nc1ccc(C(=O)/C=C/c2ccccc2)cc1`, the GI50 in the assay with HCC-2998 colon was 39.6 µM; in the assay with K-562 leukemia, 3.07 µM; in the assay on LOX IMVI melanoma, 2.32 µM; in the assay on NCI/ADR-RES ovarian, 9.75 µM; in the assay on OVCAR-4 ovarian it was 9.47 µM; with SK-MEL-2 melanoma, 2.94 µM. Also, the GI50 in the assay with SNB-19 CNS is 3.05 µM; in the assay with SR leukemia, 1.54 µM; in the assay on TK-10 renal it was 4.19 µM. The TGI in the assay with HCC-2998 colon is greater than 100 µM; in the assay on K-562 leukemia, greater than 100 µM; with LOX IMVI melanoma, greater than 100 µM; with NCI/ADR-RES ovarian, greater than 100 µM; in the assay with OVCAR-4 ovarian it was greater than 100 µM; in the assay on SK-MEL-2 melanoma it was 11.3 µM. The TGI was greater than 100 µM with SNB-19 CNS, 6.1 µM in the assay on SR leukemia and greater than 100 µM in the assay on TK-10 renal.
For `Nc1ccc(Sc2ccc3c4c2cccc4c(=O)n2c4ccccc4nc32)cc1`, the GI50 with A549 NSCLC is 2.17 µM; in the assay with HCC-2998 colon, 10.1 µM; with K-562 leukemia, 4.93 µM; with LOX IMVI melanoma, 3.32 µM; in the assay with NCI/ADR-RES ovarian, 5.95 µM; in the assay on OVCAR-4 ovarian it was 6.93 µM. Moreover, the GI50 was 8.87 µM with SK-MEL-2 melanoma, 6.17 µM with SNB-19 CNS and 1.6 µM with SR leukemia. The TGI was 12.9 µM in the assay on A549 NSCLC; greater than 100 µM in the assay on HCC-2998 colon; greater than 100 µM with K-562 leukemia; 14.3 µM in the assay on LOX IMVI melanoma; 62.8 µM in the assay with NCI/ADR-RES ovarian; 28.8 µM in the assay on OVCAR-4 ovarian. The values for the TGI in the assay on SK-MEL-2 melanoma, in the assay on SNB-19 CNS and in the assay with SR leukemia were 65.6 µM, greater than 100 µM and 33.1 µM, respectively.
For the compound `CC1CCCc2c(CC3CC(=O)NC(=O)C3)nc(N)nc21` (stereo not given), the TGI in the assay with A549 NSCLC, in the assay on HCC-2998 colon, with K-562 leukemia, in the assay with LOX IMVI melanoma, with NCI/ADR-RES ovarian and in the assay on OVCAR-4 ovarian was greater than 100 µM in each case. In addition, the TGI in the assay with SK-MEL-2 melanoma, in the assay with SR leukemia and with TK-10 renal was greater than 100 µM throughout.
Consider `CN(C)/C=C/C(=O)c1cccc(C(=O)/C=C/N(C)C)n1`, for which the TGI with A549 NSCLC, in the assay on HCC-2998 colon, with K-562 leukemia, in the assay with LOX IMVI melanoma, in the assay on OVCAR-4 ovarian and in the assay on SK-MEL-2 melanoma was greater than 100 µM each time. Moreover, the TGI in the assay on SNB-19 CNS, in the assay on SR leukemia and with TK-10 renal was greater than 100 µM throughout.

These data come from PubChem BioAssay (NCI).
